Reference: patent US3976762A (priority 1974, dated 1976)
Read-outs that look alike come from different tables or passages of the source.

Details: mouse, in vivo; for Urine and Feces, percent of total injected radioactivity: iv

Substance | Localization / excretion of the complex (in words) | Urine and Feces, percent of total injected radioactivity (0 h) | Urine and Feces, percent of total injected radioactivity (0.5 h) | Urine and Feces, percent of total injected radioactivity (1 h) | Urine and Feces, percent of total injected radioactivity (2 h) | Urine and Feces, percent of total injected radioactivity (4 h) | Urine and Feces, percent of total injected radioactivity (24 h)
Tc-99m-1-aminobutylphosphonic acid | rapidly excreted via the kidney | 0.0 | 74.2 | 85.0 | 90.7 | 86.6 | 
Tc-99m-1,5-diaminopentylphosphonic acid | high uptake of the complex by the kidney without rapid excretion | 0.0 | 47.3 | 55.0 | 61.3 |  | 83.2
